The values below come from ChEMBL document CHEMBL1201862, “PubChem BioAssay data set” (2004).

Among the test systems are HCT-15; SK-OV-3; CAKI-1; BT-549; NCI-H522; DU-145; SW-620; SF-539; UO-31; OVCAR-4; HOP-62; HL-60; MDA-N; KM12; SK-MEL-2; U-251; LOX IMVI; SF-295; CCRF-CEM.
Holding throughout (assay): NCI anticancer screen, dose series, 48 h

SMILES strings stand for the structures.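 Protocol summary: plate cells (96-well), add compound at 5 concentrations, incubate 48 h, interpolate endpoints linearly. GI50 marks 50% less growth.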 The source made the active and inactive calls. No stated cut-off is given here; in the data, active = GI50 up to about 1.1 µM and inactive = higher.

With `O=C(Cn1nnc(-c2ccccc2)n1)N/N=C/c1cn(Cc2ccc(Cl)cc2Cl)c2ccccc12`, the GI50 in the assay on HCT-15 was > 100 µM; with SK-OV-3, > 100 µM (inactive); in the assay on CAKI-1, > 100 µM (inactive); in the assay on BT-549, > 100 µM (inactive); in the assay with NCI-H522, 43.1 µM (inactive); in the assay with DU-145, > 100 µM (inactive). Also, the GI50 was 58.3 µM (inactive) with SW-620; > 100 µM (inactive) with SF-539; > 100 µM (inactive) in the assay on UO-31; > 100 µM (inactive) with OVCAR-4; > 100 µM (inactive) in the assay with HOP-62; 39.6 µM (inactive) with HL-60. Besides, the GI50 with MDA-N is > 100 µM (inactive); with KM12, > 100 µM (inactive); with SK-MEL-2 it was > 100 µM (inactive); in the assay on U-251, > 100 µM (inactive); in the assay on LOX IMVI, > 100 µM (inactive); in the assay on SF-295 it was 63.2 µM (inactive). Moreover, the GI50 in the assay on CCRF-CEM is 44.1 µM (inactive).
In the case of `CC1CC2OC(=O)C(C)C2CC2(C)C(OC3OC(CO)C(O)C(O)C3O)OCCC12` (configuration not stated), the GI50 with HCT-15 is > 100 µM; in the assay with SK-OV-3 it was > 100 µM (inactive); in the assay with CAKI-1, > 100 µM (inactive); in the assay with BT-549, 15.5 µM (inactive); with NCI-H522, > 100 µM (inactive); in the assay with DU-145, > 100 µM (inactive). Moreover, the GI50 with SW-620, in the assay with SF-539, with OVCAR-4, in the assay on HOP-62, in the assay on HL-60 and with MDA-N was > 100 µM (inactive) throughout. Further, the GI50 in the assay with KM12, with SK-MEL-2, with U-251, in the assay on LOX IMVI, in the assay on SF-295 and in the assay on CCRF-CEM was > 100 µM (inactive) each time.
Consider `CCOc1cc(NC(C)=O)ccc1C(=O)NN1C(=O)C(Oc2ccccc2)C1c1ccccc1` (configuration not stated), for which the GI50 is > 100 µM with HCT-15; > 100 µM (inactive) in the assay with SK-OV-3; 52.4 µM (inactive) in the assay with CAKI-1; > 100 µM (inactive) in the assay with BT-549; > 100 µM (inactive) with NCI-H522; > 100 µM (inactive) with DU-145. The GI50 in the assay on SW-620 is > 100 µM (inactive); in the assay on SF-539 it was 78 µM (inactive); in the assay with OVCAR-4, > 100 µM (inactive); in the assay on HOP-62 it was > 100 µM (inactive); in the assay on HL-60, 25.9 µM (inactive); in the assay on MDA-N, > 100 µM (inactive). In addition, the GI50 in the assay on KM12 was > 100 µM (inactive); in the assay on SK-MEL-2, > 100 µM (inactive); with LOX IMVI it was 85.3 µM (inactive); in the assay on SF-295, 57.8 µM (inactive); in the assay on CCRF-CEM, 28.6 µM (inactive).
As to `CC(C)(C)c1cc(OCc2nnc3sc(-c4ccc(Cl)cc4)nn23)c(Cl)cc1OCc1nnc2sc(-c3ccc(Cl)cc3)nn12`, the GI50 in the assay on HCT-15 is 3.31 µM; in the assay with SK-OV-3, 4.06 µM (inactive); in the assay with CAKI-1, 2.3 µM (inactive); with BT-549, 4.7 µM (inactive); in the assay on NCI-H522, 0.564 µM (active); in the assay with DU-145, 4.19 µM (inactive). Further, the GI50 with SW-620 was 3.13 µM (inactive); in the assay with SF-539, 2.57 µM (inactive); in the assay with UO-31, 10.3 µM (inactive); with OVCAR-4 it was 3.98 µM (inactive); with HOP-62, 5.87 µM (inactive); in the assay on HL-60, 2.46 µM (inactive). For the same compound, the GI50 with MDA-N is 0.644 µM (active); with KM12, 2.47 µM (inactive); in the assay with SK-MEL-2 it was 7.91 µM (inactive); with U-251, 5.79 µM (inactive); with LOX IMVI, 5.04 µM (inactive); in the assay with SF-295, 3.3 µM (inactive).
